Experimental data taken from US5935861A, “Diazonium ion assay reagents and methods for their use” (priority 1997, dated 1999).

Assay type: physicochemical
Excerpt: . An exemplary synthesis is the synthesis of 2-methyl-3-nitroaniline diazonium ion (2). In this embodiment, 2-methyl-3-nitroaniline (1) is converted to the diazonium ion (2) by reaction with sodium nitrite in an acidic aqueous medium. The reaction is illustrated in Scheme I below. The 2-methyl-3-nitroaniline diazonium ion (2) is capable of reacting with bilirubin to form a detectable product, and is thus useful in assays for detecting and quantitating bilirubin in a sample. […]

Cc1c(N)cccc1[N+](=O)[O-] [2-methyl-3-nitroaniline]
solubility in water or other aqueous systems (in words): good solubility in aqueous systems
